For one assay, the system named is tau. Put plainly: Western blotting of phospho-tau and total tau in hippocampal tissue of hTauP301S mice. The format is in vivo. The settings on record: 6 weeks oral dosing. The source says:
Levels of phospho-tau (FIG. 5A) and total tau (FIG. 5B) as measured by Western blotting in hippocampal tissue from male nontransgenic (NTG) and hTauP301S mice after 6 weeks of oral dosing with S3QEL2 or vehicle. n=3-6 mice per group. *p<0.05, **p<0.01, ***p<0.001, ANOVA with Dunnett's test.
(§1) As assessed by immunolabeling, hTauP301S mice treated with S3QEL2 also had reduced levels of glial fibrillary acidic protein (GFAP)-positive astrogliosis and phosphorylated tau (FIG. 7). Western blotting confirmed reduced levels of phosphorylated but not total tau in these mice (FIG. 5).

Another assay relates to isolated microglia. Put plainly: Markers of reactivity and immune signaling in isolated microglia (qRT-PCR). The format is cell-based, mice. The settings on record: S3QEL2 20 μM, 24 h. The protocol:
Microglia isolated from P2-P3 mice were treated with lipopolysaccharide (LPS, 100 ng/ml) or oligomeric Aβ (3 μM), and S3QEL2 (20 μM) or vehicle for 24 h and analyzed by qRT-PCR. n=3 wells per condition.

For another assay, the system named is primary neurons. Kind of assay: Tau-associated neuronal damage in primary neurons cultured alone (AAV-TauP301S, MAP2/NeuN immunostaining). The assay is classed as cell-based, mouse. To be noted: 10 μM; AAV human P301S tau. The protocol:
(§2) Primary neurons were immunostained for MAP2 or NeuN following mock treatment or transduction with AAV encoding human P301S mutant tau under the synapsin-1 promoter. Neurons were cultured without (FIGS. 9A-9B) or with (FIGS. 9C-9D) primary mouse microglia. S3QEL2 (S3, 10 μM). n=4 per condition.
(§3) To begin dissecting the mechanisms by which S3QEL2 affects neural cell function and disease-linked processes, studies in primary cultures were conducted. Isolated mouse-derived neurons were transduced with adeno-associated viral vectors (AAVs) encoding wild-type or the P301S mutant form of the human tau protein (FIG. 8A). […] However, S3QEL reduced neuronal damage in the presence of astrocytes (approx. 30% astrocytes, FIG. 10A). Tau can also promote aberrant neuronal activity and hypersynchrony. S3QEL reduced aberrant neuronal firing in tau-transduced neurons co-cultured with astrocytes (FIGS. 10B-10C).

For assay [1], the system named is primary astrocytes. Put plainly: Intracellular ATP levels in primary astrocytes. The format is cell-based. The source says: Antimycin A and myxothiazol were used as positive controls to inhibit mitochondrial respiration and ATP production. n=3 wells per condition. ***p<0.001 vs. vehicle, mixed-effects model with Dunnett's multiple comparisons test.
For assay [2], the system named is primary neurons with primary mouse microglia. Put plainly: Tau-associated neuronal damage in primary neurons cultured with microglia. The format is cell-based. The settings on record: 10 μM; AAV human P301S tau. How it is done:
as §2, §3

Assay [3] concerns primary astrocytes. Kind of assay: Markers of reactivity in primary astrocytes treated with oligomeric Aβ (qRT-PCR). The assay is classed as cell-based, mice. To be noted: oligomeric Aβ 3 μM, S3QEL2 20 μM, 24 h. The protocol: (FIGS. 11A-11B) Astrocytes isolated from P2-P3 mice were treated with oligomeric Aβ (3 μM) and S3QEL2 (S3, 20 μM) or vehicle (V) for 24 h and analyzed by qRT-PCR (FIG. 11A) or Western blotting (B) and normalized to vehicle controls. (FIG. 11B) Phospho-STAT3 levels were normalized to total STAT3 per sample. n=3 wells per condition; *p<0.05, **p<0.01, ***p<0.001, ANOVA with Dunnett's test.
To further assess if S3QELs alter glial functions, the effects of S3QEL2 on isolated astrocytes and microglia was tested. […] These markers included genes associated with neurodegeneration and aging, such as complement component C3, which promotes synapse elimination in disease, and phosphorylated STAT3, which is considered a central regulator of astrocytic reactivity.

Assay [4] relates to genes linked to neuroinflammation and glial reactivity. Kind of assay: Microfluidic RT-qPCR panel of neuroinflammation-related genes in hippocampi of hTauP301S mice. To be noted: 10-month-old hTauP301S mice, six weeks oral dosing, vs vehicle. The assay is classed as in vivo. How it is done:
Subset of neuroinflammatory markers measured by RT-qPCR in hippocampi of 10-month-old male nontransgenic (NTG) or hTauP301S mice after 6 weeks of oral dosing with 5 mg/kg/day S3QEL2, 10 mg/kg/day S1QEL1.1, or vehicle. […] Average fold-change vs NTG. n=3-5 mice per group.
Next, studies were conducted to test if S3QEL2 or SIQEL1.1 altered the expression of genes involved in neuroinflammation and glial reactivity in hTauP301S mice.

The next assay deals with ASC/Pycard; CD11b. Put plainly: Immunolabeling of ASC/Pycard and CD11b in hippocampal tissue of hTauP301S mice. To be noted: 6 weeks oral dosing. The format is in vivo.
Description: Levels of immunolabeling for the inflammasome protein ASC/Pycard (FIG. 6A) and the microglial marker CD11b (FIG. 6B) in hippocampal tissue from nontransgenic (NTG) and hTauP301S mice after 6 weeks of oral dosing with S3QEL2 or vehicle. n=3-6 mice per group. *p<0.05, **p<0.01, ***p<0.001, ANOVA with Dunnett's test.
as §1

Assay [5] deals with A-172 glioblastoma cells. Put plainly: Glioblastoma cell proliferation, CellTiter-Glo luciferase assay, A-172. The assay is classed as cell-based, human. The settings on record: 0-50 μM, 72 and 96 h. How it is done: Relative cell density was measured using the CellTiter-Glo luciferase assay. n=3 wells per condition. *p<0.05, **p<0.01, ***p<0.001 vs. 0 μM, one-way ANOVA with Dunnett's multiple comparisons test.
The effect of S3QELs on proliferation of glial tumor cells that have different oncogenic mutations was assessed. In particular, proliferation rates were assessed in three different human immortalized glioblastoma cells lines (A-172, T98G, and U-87 MG). A-172 and U-87 lines have mutations in PTEN, a phosphatase that indirectly regulates PI3K activities, whereas T98G cell line has a mutation in p53, a well-known tumor suppressor gene. STAT3 can affect PI3K signaling and p53 transcription and could thereby promote glioblastoma cell proliferation. Whether S3QELs reduce glioblastoma cell proliferation and aberrant intracellular signaling was tested.
(§4) Briefly, two complementary methods were used to assess cell proliferation, including the CellTiter-Glo assay and DAPI staining of cell nuclei. The effects of S3QEL2 treatment on A-172, T98G, and U-87 MG cells were measured at different drug concentrations (0, 6, 20, 30, 40, or 50 μM) and time-points after treatment (72 or 96 hours). S3QEL2 inhibits proliferation of A-172 and T98G glioblastoma cells in a highly dose-dependent manner and these effects are similar at different time-points (FIG. 15A-B).

For assay [6], the system named is A-172 glioblastoma cells. Put plainly: Glioblastoma cell proliferation, DAPI staining of cell nuclei, A-172. To be noted: 72 h. The format is cell-based, human. How it is done: Cell density was measured using DAPI staining of cell nuclei and quantification of fluorescence intensities. n=3 wells per condition. […] STAT3 levels were measured by Western blotting. STAT3 levels were normalized to γ-tubulin levels within each cell lysate and expressed as fold change relative to U-87MG cells. n=4 wells per condition. **p<0.01, ***p<0.001 vs. 0 μM or U-87MG, one-way ANOVA with Dunnett's multiple comparisons test.
as §4

On to `CCCN(CCC)c1ncnc2c1cnn2-c1ccc(C)c(C)c1` [S3QEL2], for which the “Phospho-tau levels (Western blotting)” value with tau is “reduced”. The “Markers of reactivity and immune signaling in microglia” value with isolated microglia (LPS 100 ng/ml) is “did not affect markers of reactivity and immune signaling”; in the assay with isolated microglia (oligomeric Aβ 3 μM), “did not affect markers of reactivity and immune signaling”. For the same molecule, the “Tau-associated neuronal damage, neurons cultured alone” value with primary neurons was “did not affect tau-associated neuronal damage”. Also, the “Intracellular ATP levels” value in the assay on primary astrocytes [1] was “do not affect intracellular ATP levels”. The “Tau-associated neuronal damage, neurons cultured with microglia” value in [2] is given as “did not affect tau-associated neuronal damage”. Also, in the assay with primary astrocytes [3], the “Markers of reactivity (genes incl. complement component C3)” value is “reduced markers of reactivity”. The “Expression of genes linked to neuroinflammation and glial reactivity” value in assay [4] was “reduced expression of diverse genes linked to neuroinflammation and glial reactivity”. The ASC/Pycard protein immunolabeling result in the assay on ASC/Pycard; CD11b is on record as “reduced”. Also, the CD11b protein immunolabeling result in the assay with ASC/Pycard; CD11b was “reduced”. Also, the “Cell proliferation (relative cell density, CellTiter-Glo)” value in the assay on A-172 glioblastoma cells [5] was “dose-dependently inhibited cell proliferation”. Further, the “Cell proliferation (cell density, DAPI staining)” value with A-172 glioblastoma cells [6] was “reduces proliferation”.

The record behind these values is patent US20240058344A1, “METHODS OF TREATING NEURODEGENERATIVE DISORDERS AND STAT3-LINKED CANCERS USING SUPPRESSORS OF ELECTRON LEAK” (Cornell University, priority 2020, published 2024).
